According to patent US20190309272A1, “Genetically Modified Cell Lines Including a TP53 Modification and Methods of Use” (UNIVERSITY OF SOUTH CAROLINA, priority 2018, published 2019):
Structures can show the parent of a compound that is named as a salt. Starred links: 1 amine or outer side, 2 acyl side, 3 side chain; linkers in the order of their positions; H or OH if unused. Positions of bridges follow the written chain, without caps; N, C: chain ends. Non-standard residues stand in square brackets, D forms with d. Residues, ends and D or L forms follow the SMILES beside them. Chains are numbered I, II in the order given. Actinocin(9to1) = Cc1c2oc3c(C)ccc(C(=O)[*:1])c3nc-2c(C(=O)[*:2])c(N)c1=O; NMeV = CN[C@H](C(=O)O)C(C)C; Sar = CNCC(=O)O

Columns and labels:
Format in all cases: cell-based, Human
Settings in all cases: ten-day drug treatment, 156.25 nM to 10 μM, resazurin fluorescence
[1] = test system: MCF7 TP53 KO 5.6 pool; experiment: Drug screening, resazurin, TP53 KO 5.6 pool
[2] = test system: MCF7 TP53 KO 3.4 pool; experiment: Drug screening, resazurin, TP53 KO 3.4 pool
[3] = test system: MCF7 WT Parental pool; experiment: Drug screening, resazurin, MCF7 wild type parental pool

Molecule	TP53 KO 5.6 pool (AUC) [1]	TP53 KO 3.4 pool (AUC) [2]	MCF7 WT Parental pool (AUC) [3]
O=C1CCC(N2C(=O)c3ccccc3C2=O)C(=O)N1 (stereo not shown) [Thalidomide]	10.21	9.18	7.13
O=NN(CCCl)C(=O)NCCCl [Carmustine]	9.965	9.826	9.622
Cc1c2oc3c(C)ccc(C(=O)N[C@@H]4C(=O)N[C@H](C(C)C)C(=O)N5CCC[C@H]5C(=O)N(C)CC(=O)N(C)[C@@H](C(C)C)C(=O)O[C@@H]4C)c3nc-2c(C(=O)N[C@@H]2C(=O)N[C@H](C(C)C)C(=O)N3CCC[C@H]3C(=O)N(C)CC(=O)N(C)[C@@H](C(C)C)C(=O)O[C@@H]2C)c(N)c1=O [Dactinomycin] (I: T[dV]P[Sar][NMeV] / II: T[dV]P[Sar][NMeV]; ester I:1-I:C, II:1-II:C; linker I:N-II:N via Actinocin(9to1))	1.65	1.588	2.01
CC(C)C[C@H](NC(=O)[C@H](CCc1ccccc1)NC(=O)CN1CCOCC1)C(=O)N[C@@H](Cc1ccccc1)C(=O)N[C@@H](CC(C)C)C(=O)[C@@]1(C)CO1 [Carfilzomib]	0.6678	0.6462	0.6359
COc1c2occc2cc2ccc(=O)oc12 [Methoxsalen]	10.48	10.56	8.476
C[C@]12CC[C@@H]3c4ccc(O)cc4C[C@@H](CCCCCCCCC[S+]([O-])CCCC(F)(F)C(F)(F)F)[C@H]3[C@@H]1CC[C@@H]2O (stereo partly shown) [Fulvestrant]	4.145	3.797	4.6
CC(=O)Nc1cccc(-n2c(=O)n(C3CC3)c(=O)c3c(Nc4ccc(I)cc4F)n(C)c(=O)c(C)c32)c1 [Trametinib]	8.533	6.641	7.726
COc1cc([C@@H]2c3cc4c(cc3[C@@H](O[C@@H]3O[C@@H]5CO[C@@H](c6cccs6)O[C@H]5[C@H](O)[C@H]3O)[C@H]3COC(=O)[C@H]23)OCO4)cc(OC)c1O [Teniposide]	1.041	0.9417	1.342
CCc1cc2c(cc1N1CCC(N3CCOCC3)CC1)C(C)(C)c1[nH]c3cc(C#N)ccc3c1C2=O [Alectinib]	2.7	4.51	5.763
Nc1ccn([C@@H]2O[C@H](CO)[C@@H](O)[C@@H]2O)c(=O)n1 [Cytarabine Hydrochloride]	–	–	4.771
C=C1C[C@@H]2[C@H](CC[C@]3(C)C(=O)CC[C@@H]23)[C@@]2(C)C=CC(=O)C=C12 [Exemestane]	–	–	8.564
Nc1nc2nc[nH]c2c(=S)[nH]1 [Thioguanine]	–	–	4.122
Dabrafenib Mesylate	–	14.73	14.9
O=C1c2c(O)ccc(O)c2C(=O)c2c(NCCNCCO)ccc(NCCNCCO)c21 [Mitoxantrone]	–	–	2.338
CO[C@H]1C[C@@H]2CC[C@@H](C)[C@@](O)(O2)C(=O)C(=O)N2CCCC[C@H]2C(=O)O[C@H]([C@H](C)C[C@@H]2CC[C@@H](OC(=O)C(C)(CO)CO)[C@H](OC)C2)CC(=O)[C@H](C)/C=C(\C)[C@@H](O)[C@@H](OC)C(=O)[C@H](C)C[C@H](C)/C=C/C=C/C=C/1C [Temsirolimus]	–	–	2.486
CNC(=O)c1cc(Oc2ccc(NC(=O)Nc3ccc(Cl)c(C(F)(F)F)c3)cc2)ccn1 [Sorafenib]	–	–	3.981
OC[C@H]1O[C@@H](n2cnc3c2NC=NC[C@H]3O)C[C@@H]1O [Pentostatin]	–	–	10.31
CC(=O)[C@]1(O)Cc2c(O)c3c(c(O)c2[C@@H](O[C@H]2C[C@H](N)[C@H](O)[C@H](C)O2)C1)C(=O)c1ccccc1C3=O [Idarubicin Hydrochloride]	–	–	0.958
